68 sequences from the supplement of paper PMC11208160 can be followed below.

This data set can be described thus: recombinant UMI read abundance after kanamycin selection (control-corrected) (log10(CPM+1)); higher = more efficient recombination; extreme values may be limits of the assay; sequences stand for … in AGTGCAGAGAAAATCGGCCAGTTTTCTCTGCCTGCAGTCCGCATGCCGTGGGACCCCTTGGGTTCTAACCTGTTGCCTAGATTTATGCAGCGGACTGCCTTTCTCCCAAAGTGATAAACCGG…AGGTTGGTTTCACT; site = the 11-nt donor. An outline of the steps: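 Sequencing read counts were converted to CPM, averaged over two replicates and scaled by control-derived factors. Results are given as log10(CPM+1). The reads covered the donor–target junction of recombinant UMIs from a pooled Escherichia coli screen of donor and donor-binding-loop pairs for the IS621 bridge recombinase.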
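Note: IS621 bridge recombinase in Escherichia coli cells against a fixed T5 target plasmid.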

As for “ATCCAAGCATGGACCGGTTTTCCCGGTAATCCGTATTTGAG (site ACCCAAGCTCT)”, the “recombinant UMI read abundance (log10)” value turned out to be 0.646.

As to “ATCCAAGCATGGACCGGTTTTCCCGGTAATCCGTATTTGAG (site AGCCAAGCTCT)”, the “recombinant UMI read abundance (log10)” value is 0.194.

Regarding “ATCCAAGCATGGACCGGTTTTCCCGGTAATCCGTATTTGAG (site ATACAAGCTCT)”, the “recombinant UMI read abundance (log10)” value worked out at 0.0267.

Regarding “ATCCAAGCATGGACCGGTTTTCCCGGTAATCCGTATTTGAG (site ATCAAAGCTCT)”, the “recombinant UMI read abundance (log10)” value was found to be 0.429.

For “ATCCAAGCATGGACCGGTTTTCCCGGTAATCCGTATTTGAG (site ATCCAAACTCT)”, the “recombinant UMI read abundance (log10)” value is 1.09.

As for “ATCCAAGCATGGACCGGTTTTCCCGGTAATCCGTATTTGAG (site ATCCAACCTCT)”, the “recombinant UMI read abundance (log10)” value is 0.00996.

In the case of “ATCCAAGCATGGACCGGTTTTCCCGGTAATCCGTATTTGAG (site ATCCAAGCTAT)”, the “recombinant UMI read abundance (log10)” value came to 1.64.

Regarding “ATCCAAGCATGGACCGGTTTTCCCGGTAATCCGTATTTGAG (site ATCCAAGCTCA)”, the “recombinant UMI read abundance (log10)” value was determined as 0.209.

With “ATCCAAGCATGGACCGGTTTTCCCGGTAATCCGTATTTGAG (site ATCCAAGCTCC)”, the “recombinant UMI read abundance (log10)” value was 0.0127.

In the case of “ATCCAAGCATGGACCGGTTTTCCCGGTAATCCGTATTTGAG (site ATCCAAGCTCG)”, the “recombinant UMI read abundance (log10)” value was 0.141.

With “ATCCAAGCATGGACCGGTTTTCCCGGTAATCCGTATTTGAG (site ATCCAAGCTCT)”, the “recombinant UMI read abundance (log10)” value is 0.799.

For “ATCCAAGCATGGACCGGTTTTCCCGGTAATCCGTATTTGAG (site ATCCAAGCTGT)”, the “recombinant UMI read abundance (log10)” value amounted to 0.

“ATCCAAGCATGGACCGGTTTTCCCGGTAATCCGTATTTGAG (site ATCCAAGCTTT)”: the “recombinant UMI read abundance (log10)” value was found to be 0.757.

For “ATCCAAGCATGGACCGGTTTTCCCGGTAATCCGTATTTGAG (site ATCCAATCTCT)”, the “recombinant UMI read abundance (log10)” value was found to be 0.773.

For “ATCCAAGCATGGACCGGTTTTCCCGGTAATCCGTATTTGAG (site ATCCACGCTCT)”, the “recombinant UMI read abundance (log10)” value was found to be 0.0466.

Take “ATCCAAGCATGGACCGGTTTTCCCGGTAATCCGTATTTGAG (site ATCCAGGCTCT)”: the “recombinant UMI read abundance (log10)” value stood at 0.356.

Consider “ATCCAAGCATGGACCGGTTTTCCCGGTAATCCGTATTTGAG (site ATCCATGCTCT)”, for which the “recombinant UMI read abundance (log10)” value amounted to 0.0106.

With “ATCCAAGCATGGACCGGTTTTCCCGGTAATCCGTATTTGAG (site ATCCCAGCTCT)”, the “recombinant UMI read abundance (log10)” value is 0.0104.

“ATCCAAGCATGGACCGGTTTTCCCGGTAATCCGTATTTGAG (site ATCCGAGCTCT)”: the “recombinant UMI read abundance (log10)” value was 0.00838.

Consider “ATCCAAGCATGGACCGGTTTTCCCGGTAATCCGTATTTGAG (site ATCCTAGCTCT)”, for which the “recombinant UMI read abundance (log10)” value is 0.357.

In the case of “ATCCAAGCATGGACCGGTTTTCCCGGTAATCCGTATTTGAG (site ATCGAAGCTCT)”, the “recombinant UMI read abundance (log10)” value came to 0.00681.

“ATCCAAGCATGGACCGGTTTTCCCGGTAATCCGTATTTGAG (site ATCTAAGCTCT)”: the “recombinant UMI read abundance (log10)” value amounted to 0.231.

On to “ATCCAAGCATGGACCGGTTTTCCCGGTAATCCGTATTTGAG (site ATGCAAGCTCT)”, for which the “recombinant UMI read abundance (log10)” value came to 0.0198.

As for “ATCCAAGCATGGACCGGTTTTCCCGGTAATCCGTATTTGAG (site ATTCAAGCTCT)”, the “recombinant UMI read abundance (log10)” value was found to be 0.0155.

In the case of “ATCCAAGCATGGACCGGTTTTCCCGGTAATCCGTATTTGAG (site CTCCAAGCTCT)”, the “recombinant UMI read abundance (log10)” value stood at 0.656.

“ATCCAAGCATGGACCGGTTTTCCCGGTAATCCGTATTTGAG (site GTCCAAGCTCT)”: the “recombinant UMI read abundance (log10)” value came out at 0.00952.

As to “ATCCAAGCATGGACCGGTTTTCCCGGTAATCCGTATTTGAG (site TTCCAAGCTCT)”, the “recombinant UMI read abundance (log10)” value was 1.17.

For the sequence “ATCCAAGCATGGACCGGTTTTCCCGGTAATCCGTATTTGAT (site ATCCAAGCTAT)”, the “recombinant UMI read abundance (log10)” value turned out to be 1.36.

On to “ATCCAAGCATGGACCGGTTTTCCCGGTAATCCGTATTTGAT (site ATCCAAGCTCT)”, for which the “recombinant UMI read abundance (log10)” value was 0.233.

For “ATCCAAGCATGGACCGGTTTTCCCGGTAATCCGTATTTGAT (site ATCCAAGCTGT)”, the “recombinant UMI read abundance (log10)” value is 1.37.

As for “ATCCAAGCATGGACCGGTTTTCCCGGTAATCCGTATTTGAT (site ATCCAAGCTTT)”, the “recombinant UMI read abundance (log10)” value came out at 0.0123.

Consider “ATCCAAGCATGGACCGGTTTTCCCGGTAATCCGTATTTGCG (site ATCCAAGCTCA)”, for which the “recombinant UMI read abundance (log10)” value is 0.0396.

Turning to “ATCCAAGCATGGACCGGTTTTCCCGGTAATCCGTATTTGCG (site ATCCAAGCTCC)”, the “recombinant UMI read abundance (log10)” value was found to be 0.00949.

For “ATCCAAGCATGGACCGGTTTTCCCGGTAATCCGTATTTGCG (site ATCCAAGCTCG)”, the “recombinant UMI read abundance (log10)” value was 0.262.

Take “ATCCAAGCATGGACCGGTTTTCCCGGTAATCCGTATTTGCG (site ATCCAAGCTCT)”: the “recombinant UMI read abundance (log10)” value came to 0.689.

On to “ATCCATGCATGGACCGGTTTTCCCGGTAATCCGTATTTGAG (site ATCCAAGCTCT)”, for which the “recombinant UMI read abundance (log10)” value came to 0.0773.

“ATCCATGCATGGACCGGTTTTCCCGGTAATCCGTATTTGAG (site ATCCACGCTCT)”: the “recombinant UMI read abundance (log10)” value was determined as 0.0124.

For “ATCCATGCATGGACCGGTTTTCCCGGTAATCCGTATTTGAG (site ATCCAGGCTCT)”, the “recombinant UMI read abundance (log10)” value was found to be 0.0333.

In the case of “ATCCATGCATGGACCGGTTTTCCCGGTAATCCGTATTTGAG (site ATCCATGCTCT)”, the “recombinant UMI read abundance (log10)” value is 1.05.

Consider “ATCCGCGCATGGACCGGTTTTCCCGGTAATCCGTATTTGCG (site ATCCGCGCTCG)”, for which the “recombinant UMI read abundance (log10)” value came to 0.503.

In the case of “ATCCTAGCATGGACCGGTTTTCCCGGTAATCCGTATTTGTA (site ATCCTAGCTTA)”, the “recombinant UMI read abundance (log10)” value was 1.58.

Regarding “ATCCTATCATGGACCGGTTTTCCCGGTAATCCGTATTTGAG (site ATCCTATCTCT)”, the “recombinant UMI read abundance (log10)” value was 0.448.

Take “ATCCTTCCATGGACCGGTTTTCCCGGTAATCCGTATTTGCC (site ATCCTTCCTGG)”: the “recombinant UMI read abundance (log10)” value was found to be 0.

For the sequence “ATCGAGACATGGACCGGTTTTCCCGGTAATCCGTATTTGGT (site ATAGAGACTAC)”, the “recombinant UMI read abundance (log10)” value is 1.76.

On to “ATCGAGACATGGACCGGTTTTCCCGGTAATCCGTATTTGGT (site ATCGAGACTAC)”, for which the “recombinant UMI read abundance (log10)” value came out at 1.01.

With “ATCGAGACATGGACCGGTTTTCCCGGTAATCCGTATTTGGT (site ATGGAGACTAC)”, the “recombinant UMI read abundance (log10)” value turned out to be 0.604.

For the sequence “ATCGAGACATGGACCGGTTTTCCCGGTAATCCGTATTTGGT (site ATTGAGACTAC)”, the “recombinant UMI read abundance (log10)” value was 0.017.

For “ATCGCGGCATGGACCGGTTTTCCCGGTAATCCGTATTTGTC (site ATCGCGGCTGA)”, the “recombinant UMI read abundance (log10)” value amounted to 2.69.

With “ATCTATACATGGACCGGTTTTCCCGGTAATCCGTATTTGAA (site ATCTATACTAT)”, the “recombinant UMI read abundance (log10)” value was 0.0589.

On to “ATCTATACATGGACCGGTTTTCCCGGTAATCCGTATTTGAA (site ATCTATACTCT)”, for which the “recombinant UMI read abundance (log10)” value amounted to 0.0128.

On to “ATCTATACATGGACCGGTTTTCCCGGTAATCCGTATTTGAA (site ATCTATACTGT)”, for which the “recombinant UMI read abundance (log10)” value was 0.

As to “ATCTATACATGGACCGGTTTTCCCGGTAATCCGTATTTGAA (site ATCTATACTTT)”, the “recombinant UMI read abundance (log10)” value came out at 1.29.

For the sequence “ATCTATACATGGACCGGTTTTCCCGGTAATCCGTATTTGAC (site AACTATACTGT)”, the “recombinant UMI read abundance (log10)” value came to 0.0062.

“ATCTATACATGGACCGGTTTTCCCGGTAATCCGTATTTGAC (site ACCTATACTGT)”: the “recombinant UMI read abundance (log10)” value was determined as 0.944.

As for “ATCTATACATGGACCGGTTTTCCCGGTAATCCGTATTTGAC (site AGCTATACTGT)”, the “recombinant UMI read abundance (log10)” value came to 1.66.

Consider “ATCTATACATGGACCGGTTTTCCCGGTAATCCGTATTTGAC (site ATATATACTGT)”, for which the “recombinant UMI read abundance (log10)” value was 0.408.

Regarding “ATCTATACATGGACCGGTTTTCCCGGTAATCCGTATTTGAC (site ATCAATACTGT)”, the “recombinant UMI read abundance (log10)” value turned out to be 0.

With “ATCTATACATGGACCGGTTTTCCCGGTAATCCGTATTTGAC (site ATCCATACTGT)”, the “recombinant UMI read abundance (log10)” value was found to be 1.7.

“ATCTATACATGGACCGGTTTTCCCGGTAATCCGTATTTGAC (site ATCGATACTGT)”: the “recombinant UMI read abundance (log10)” value is 0.

Regarding “ATCTATACATGGACCGGTTTTCCCGGTAATCCGTATTTGAC (site ATCTAAACTGT)”, the “recombinant UMI read abundance (log10)” value was 0.

On to “ATCTATACATGGACCGGTTTTCCCGGTAATCCGTATTTGAC (site ATCTACACTGT)”, for which the “recombinant UMI read abundance (log10)” value came to 0.552.

On to “ATCTATACATGGACCGGTTTTCCCGGTAATCCGTATTTGAC (site ATCTAGACTGT)”, for which the “recombinant UMI read abundance (log10)” value came to 0.

As to “ATCTATACATGGACCGGTTTTCCCGGTAATCCGTATTTGAC (site ATCTATACTAT)”, the “recombinant UMI read abundance (log10)” value stood at 0.00827.

On to “ATCTATACATGGACCGGTTTTCCCGGTAATCCGTATTTGAC (site ATCTATACTCT)”, for which the “recombinant UMI read abundance (log10)” value was 0.011.

With “ATCTATACATGGACCGGTTTTCCCGGTAATCCGTATTTGAC (site ATCTATACTGA)”, the “recombinant UMI read abundance (log10)” value turned out to be 0.0717.

Consider “ATCTATACATGGACCGGTTTTCCCGGTAATCCGTATTTGAC (site ATCTATACTGC)”, for which the “recombinant UMI read abundance (log10)” value was found to be 0.

For “ATCTATACATGGACCGGTTTTCCCGGTAATCCGTATTTGAC (site ATCTATACTGG)”, the “recombinant UMI read abundance (log10)” value was determined as 0.

For “ATCTATACATGGACCGGTTTTCCCGGTAATCCGTATTTGAC (site ATCTATACTGT)”, the “recombinant UMI read abundance (log10)” value was found to be 2.44.
